Patent publication US20180125993A1 (BEIJING COTIMES BIOTECH COMPANY LIMITED, priority 2014, published 2018)
Marks after values point to notes of the source that are not given here.

What was measured:
colon cancer, CS146, 2# = assay: Patients primary tumor tissue subcutaneous model (Day 30 after treatment); assay type: in vivo, nude mice; details: HuCTB006 10 mg/kg i.v. QW × 6w alone
Source text: (§1) Fresh primary tumor tissues from patients were implanted in NOD/SCID mice's flank, which developed into a primary tumor, which was then transferred to the nude mice's flank to allow the tumor reaching an exponential growth phase, and the tumor was named 1# tumor, and so on. When the tumor volume and number reached passage requirements, they were implanted into the right flank of nude mice. When the tumors' average volumes reached 100-200 mm^3, the mice were grouped.
(§2) The bodyweight and major/minor axis of mice were measured twice a week, and Tumor Growth Inhibition (TGI) and tumor volume were calculated same as in 5.1.5. In addition, to evaluate the synergetic effect of drug combination in tumor growth, Jin Zhengjun Q value judgment method was used with the follow formula: Q=Ea+b/(Ea+Eb−Ea×Eb). Ea+b is the inhibition ratio of drug combination, Ea and Eb are the inhibition ratio of each of drug treatment when it is administered alone. […] The animals were monitored, and when the experiments were concluded, mice were sacrificed and tumors were extracted and weighted. All the animal experiments confer to the regulations of animal's welfare and the management of experimental animal usage.
Tumor volumes were represented with average±standard error. Data analysis was done using Spss16.0, One-Way ANOVA, LSD (homogeneity of variance) or Dunnett T3 (non-homogeneity of variance). […]

colon cancer, CS263, 1# = assay: Patients primary tumor tissue subcutaneous model (Day 35 after treatment); assay type: in vivo, nude mice; details: HuCTB006 10 mg/kg i.v. QW × 4w
Source text: as §1, §2
Tumor volumes were represented with average±standard error. Data analysis was done using Spss16.0, One-Way ANOVA, LSD (homogeneity of variance) or Dunnett T3 (non-homogeneity of variance). […] P<0.05 represents significant difference.

Daudi = assay: In vitro cytotoxic sensitivity of CTB006; assay type: cell-based, human; details: B cell lymphoma
Raji = assay: In vitro cytotoxic sensitivity of CTB006; assay type: cell-based, human; details: B cell lymphoma
PANC-1 = assay: In vitro cytotoxic sensitivity of CTB006; assay type: cell-based, human; details: PANC-1, Pancreatic cancer
OVCA3 = assay: In vitro cytotoxic sensitivity of CTB006; assay type: cell-based, human; details: OVCA3, Ovarian cancer
MKN28 = assay: In vitro cytotoxic sensitivity of CTB006; assay type: cell-based, human; details: MKN28, Stomach cancer
H2122 = assay: Human lung cancer H2122 subcutaneous model (Day 38 after treatment); details: for Tumor regression: treatment groups
Method: The bodyweight and major/minor axis of the mice were measured twice a week, and the tumor volumes were calculated using the formula: Tumor volume=1/2×major axis×minor axis. […] “T” represents average tumor volume of the experimental group (cm^3), and “C” represents average tumor volume of the control group (cm^3). The animals were monitored at all times. The bodyweight and major/minor axis or mice were measured twice a week. When the experiments were concluded, mice were sacrificed and tumors were extracted and weighted.

A549 = assay: In vitro cytotoxic sensitivity of CTB006; assay type: cell-based, human; details: A549, Lung cancer
HCC1954 = assay: In vitro cytotoxic sensitivity of CTB006; assay type: cell-based, human; details: HCC1954, Breast cancer
Colo205 = assay: Human colon cancer Colo205 subcutaneous model (Day 28 after treatment); assay type: in vivo, nude mice; details: for TGI calculated using the tumor volume / TGI calculated using the tumor weights: repeated experiment
Method: Tumor cells (i.e., MIA-PaCa-2, WiDr, H2122, colo205) were inoculated in nude mice's flank at 5×10^6 cells per mouse. The mice were grouped when the average volume of tumors reached about 100˜200 mm^3. “QW”=weekly dose. “Q3d”=dosed every third day. “BiW”=biweekly.
The bodyweight and major/minor axis of the mice were measured twice a week, and the tumor volumes were calculated using the formula: Tumor volume=1/2×major axis[…]. […] “T” represents average tumor volume of the experimental group (cm^3), and “C” represents average tumor volume of the control group (cm^3). The animals were monitored at all times. The bodyweight and major/minor axis or mice were measured twice a week.
Tumor volumes were represented with average±standard error. […] P<0.05 represents significant difference.

[1] = system: WI-38, HFL-1, HUV-EC-C, human hepatic differentiated cells; assay: Cytotoxicity of HuCTB006 on human normal tissue cell lines; assay type: cell-based; details: 24 hours after the treatments
Source text: Several human normal tissue cell lines, including human lung epithelial fibroblasts WI-38, human embryonic lung fibroblasts HFL-1, human umbilical vein epithelial cells HUV-EC-C, and human hepatic differentiated cells, which were derived from liver genitor cells (obtained from Peking University Third Hospital). […] The culture medium for WI-38 was MEM, and the culture medium for HFL-1 and HUV-EC-C was F-12K.

[2] = HuCTB006 0.2 mg/kg i.v. QW × 6W
[3] = HuCTB006 0.2 mg/kg i.v. QW × 6W, 0.2 mg/kg
[4] = HuCTB006 0.2 mg/kg i.v. QW × 6W, listed as HUCTB006, 0.2 mg/kg
[5] = HuCTB006 0.6 mg/kg i.v. QW × 6W
[6] = HuCTB006 0.6 mg/kg i.v. QW × 6W, 0.6 mg/kg
[7] = HuCTB006 0.6 mg/kg i.v. QW × 6W, listed as HUCTB006, 0.6 mg/kg
[8] = HuCTB006 1.8 mg/kg i.v. QW × 6W
[9] = HuCTB006 1.8 mg/kg i.v. QW × 6W, 1.8 mg/kg
[10] = HuCTB006 1.8 mg/kg i.v. QW × 6W, listed as HUCTB006, 1.8 mg/kg
[11] = HuCTB006 5.4 mg/kg i.v. QW × 6W
[12] = HuCTB006 5.4 mg/kg i.v. QW × 6W, 5.4 mg/kg
[13] = HuCTB006 5.4 mg/kg i.v. QW × 6W, listed as HUCTB006, 5.4 mg/kg
[14] = repeated experiment, HuCTB006 0.2 mg/kg
[15] = repeated experiment, HuCTB006 0.6 mg/kg
[16] = repeated experiment, HuCTB006 1.8 mg/kg
[17] = repeated experiment, HuCTB006 5.4 mg/kg
[18] = HuCTB006 0.2 mg/kg i.v. QW × 4W
[19] = HuCTB006 0.2 mg/kg i.v. QW × 4W, 0.2 mg/kg
[20] = HuCTB006 0.6 mg/kg i.v. QW × 4W
[21] = HuCTB006 1.8 mg/kg i.v. QW × 4W
[22] = HuCTB006 5.4 mg/kg i.v. QW × 4W

HuCTB006: Monospecific humanized chimeric monoclonal antibody directed to TRAIL-R2 receptor; heavy chain SEQ ID NO: 14, light chain SEQ ID NO: 12
inhibitory effect on the growth of CS146 (colon cancer, CS146, 2#): did not | T/C % (Calculated using tumor volumes) (colon cancer, CS263, 1#): 89.71% | TGI (Calculated using tumor volumes) (colon cancer, CS263, 1#): 9.42% | TGI (Calculated using tumor weight) (colon cancer, CS263, 1#): 16.11% | Time of tumor volume changed significantly (colon cancer, CS263, 1#): 13 | Tumor Volume Mean ± SEM (colon cancer, CS263, 1#): 0.96 ± 0.22 cm^3 | Tumor weight Mean ± SEM (colon cancer, CS263, 1#): 0.67 ± 0.16 g | TGI (Calculated using tumor volumes) (colon cancer, CS263, 1#; 10 mg/kg): 9.42% | TGI (Calculated using tumor weight) (colon cancer, CS263, 1#; 10 mg/kg): 16.11% | In vitro cytotoxic sensitivity of CTB006 (Daudi): Non-responder | In vitro cytotoxic sensitivity of CTB006 (Raji): Non-responder | In vitro cytotoxic sensitivity of CTB006 (PANC-1): Non-responder | In vitro cytotoxic sensitivity of CTB006 (OVCA3): Non-responder | In vitro cytotoxic sensitivity of CTB006 (MKN28): Non-responder | T/C % (Calculated using tumor volumes) (H2122; [2]): 92.13% | Time of tumor volume changed significantly (H2122; [2]): 8 | Tumor Volume Mean ± SEM (H2122; [2]): 1.85 ± 0.15 cm^3 | Tumor weight Mean ± SEM (H2122; [2]): 1.54 ± 0.09 g | TGI (Calculated using tumor volumes) (H2122; [3]): 11.56% | TGI (Calculated using tumor weight) (H2122; [3]): 6.45% | TGI (Calculated using tumor volumes) (H2122; [4]): 11.56% | TGI (Calculated using tumor weight) (H2122; [4]): 6.45%^5 | T/C % (Calculated using tumor volumes) (H2122; [5]): 50.75% | Tumor Volume Mean ± SEM (H2122; [5]): 1.02 ± 0.31 cm^3 | Tumor weight Mean ± SEM (H2122; [5]): 0.89 ± 0.29 g | TGI (Calculated using tumor volumes) (H2122; [6]): 51.06% | TGI (Calculated using tumor weight) (H2122; [6]): 45.66% | TGI (Calculated using tumor volumes) (H2122; [7]): 51.06%^3 | TGI (Calculated using tumor weight) (H2122; [7]): 45.66%^4 | T/C % (Calculated using tumor volumes) (H2122; [8]): 6.46% | Tumor Volume Mean ± SEM (H2122; [8]): 0.16 ± 0.16 cm^3 | Tumor weight Mean ± SEM (H2122; [8]): 0.12 ± 0.12 g | TGI (Calculated using tumor volumes) (H2122; [9]): 92.08% | TGI (Calculated using tumor weight) (H2122; [9]): 92.48% | TGI (Calculated using tumor volumes) (H2122; [10]): 92.08%**^2 | TGI (Calculated using tumor weight) (H2122; [10]): 92.48%* | T/C % (Calculated using tumor volumes) (H2122; [11]): 5.54% | Tumor Volume Mean ± SEM (H2122; [11]): 0.18 ± 0.18 cm^3 | Tumor weight Mean ± SEM (H2122; [11]): 0.19 ± 0.18 g | TGI (Calculated using tumor volumes) (H2122; [12]): 91.23% | TGI (Calculated using tumor weight) (H2122; [12]): 8.62% | TGI (Calculated using tumor volumes) (H2122; [13]): 91.23%** | TGI (Calculated using tumor weight) (H2122; [13]): 88.62%*^1 | Bodyweights (H2122; Taxol group, HuCTB006 0.2 mg/kg group): decreased, but were maintained at an acceptable level | Tumor regression (H2122; first experiment): some animals of HuCTB006 treatment groups showed tumor regression | Tumor regression (H2122; repeated experiment): some animals of CTB006 treatment groups showed tumor regression | TGI (Calculated using tumor volume) (H2122; [14]): 35.26% | TGI (Calculated using tumor weight) (H2122; [14]): 32.46% | TGI (Calculated using tumor volume) (H2122; [15]): 67.66% | TGI (Calculated using tumor weight) (H2122; [15]): 65.94% | TGI (Calculated using tumor volume) (H2122; [16]): 60.12% | TGI (Calculated using tumor weight) (H2122; [16]): 64.21% | TGI (Calculated using tumor volume) (H2122; [17]): 91.69% | TGI (Calculated using tumor weight) (H2122; [17]): 92.25% | In vitro cytotoxic sensitivity of CTB006 (A549): Non-responder | In vitro cytotoxic sensitivity of CTB006 (HCC1954): Non-responder | T/C % (Calculated using tumor volume) (Colo205; [18]): 66.90% | Time of tumor volume changed significantly (Colo205; [18]): 10 Days after first treatment | Tumor Volume Mean ± SEM (Colo205; [18]): 1.24 ± 0.20 cm^3 | Tumor weight Mean ± SEM (Colo205; [18]): 0.84 ± 0.14 g | TGI (Calculated using tumor volume) (Colo205; [19]): 35.62% | TGI (Calculated using tumor weight) (Colo205; [19]): 33.30% | T/C % (Calculated using tumor volume) (Colo205; [20]): 14.41% | Tumor Volume Mean ± SEM (Colo205; [20]): 0.29 ± 0.13 cm^3 | Tumor weight Mean ± SEM (Colo205; [20]): 0.20 ± 0.10 g | T/C % (Calculated using tumor volume) (Colo205; [21]): 19.91% | Tumor Volume Mean ± SEM (Colo205; [21]): 0.38 ± 0.16 cm^3 | Tumor weight Mean ± SEM (Colo205; [21]): 0.23 ± 0.12 g | T/C % (Calculated using tumor volume) (Colo205; [22]): 14.80% | Time of tumor volume changed significantly (Colo205; [22]): 7~10^2 Days after first treatment | Tumor Volume Mean ± SEM (Colo205; [22]): 0.28 ± 0.10 cm^3 | Tumor weight Mean ± SEM (Colo205; [22]): 0.15 ± 0.07 g | Bodyweights (Colo205; all HuCTB006 treatment groups): did not show any notably changes | Tumor regression (Colo205; first experiment, treatment groups): four animals of HuCTB006 treatment groups showed tumor regression | TGI calculated using the tumor volume (Colo205; HuCTB006 0.2 mg/kg): 56.16% | TGI calculated using the tumor weights (Colo205; HuCTB006 0.2 mg/kg): 58.68% | TGI calculated using the tumor volume (Colo205; HuCTB006 0.6 mg/kg): 79.75% | TGI calculated using the tumor weights (Colo205; HuCTB006 0.6 mg/kg): 82.34% | TGI calculated using the tumor volume (Colo205; HuCTB006 1.8 mg/kg): 93.65% | TGI calculated using the tumor weights (Colo205; HuCTB006 1.8 mg/kg): 94.33% | TGI calculated using the tumor volume (Colo205; HuCTB006 5.4 mg/kg): 87.12% | TGI calculated using the tumor weights (Colo205; HuCTB006 5.4 mg/kg): 89.90% | cytotoxicity on human normal tissue cells [1]: no cytotoxicity
